# Measurements taken from patent US20240262815A1, “HETEROARYL DERIVATIVE, METHOD FOR PREPARING SAME, AND PHARMACEUTICAL COMPOSITION COMPRISING SAME AS ACTIVE INGREDIENT” (VORONOI INC., priority 2021, published 2024).
# System: SK-BR-3 cancer cells
# Assay: Inhibitory activity against proliferation of SK-BR-3 cancer cells (CellTiter-Glo)
# Assay type: cell-based
# Conditions: Homo sapiens, SK-BR-3, 120 h, ErbB2-overexpressing SK-BR-3 cells, 120 hours after treatment
# Protocol: To evaluate the inhibitory activity of a compound according to the present invention against the proliferation of ErbB2-overexpressing cancer cells, the following experiment were performed.
# 10% FBS-added McCOY'S 5A was used for SK-BR-3 cancer cells. 20% FBS-added RPMI-1640 was used for BT-474 cancer cells. Transduced Ba/F3 cells were cultured in a RPMI-1640 medium to which 1 μg/ml puromycin (Invitrogen) was added.
# 48 hours before compound treatment, each type of the SK-BR-3 and BT-474 cells were seeded at 5,000 cells/well in a white clear bottom 96 well plate (Corning). The compound was diluted in dimethyl sulfoxide (SK-BR-3: 3-fold dilution, a total of 12 concentrations, BT-474: […], a total of 12 concentrations) and injected at 1 μl to have the final concentration of 0.2 nM to 5 μM. As for measurement of live cells, 120 hours after treatment with the compound, a CellTiter-Glo luminescent cell-viability reagent (Promega) was used to store the cells at room temperature for 10 minutes, followed by measurement of luminescence using a reader (SynergyNeo, Biotek). Each test was repeated three times.
# The result values were calculated as a cell growth rate (%) compared to the control group. A graph was plotted using the GraphPad Prism version 8.3.0 program, and GI50 values were calculated.
row,GI50,SMILES
1,< 50 nM,"C=CC(=O)Nc1cc(Nc2cc(N3OCC[C@@H]3c3cc(F)cc(-c4cccc(F)c4)c3)ncn2)c(OC)cc1N1CCC(N2CCOCC2)CC1 [Example 207, (R)-N-(5-((6-(3-(3′,5-difluoro-[1,1′-biphenyl]-3-yl)isoxazolidin-2-yl)pyrimidin-4-yl)-amino)-4-methoxy-2-(4-morpholino-piperidin-1-yl)-phenyl)acrylamide]"
2,< 50 nM,"C=CC(=O)Nc1cc(Nc2cc(N3OCC[C@@H]3c3cccc(-c4cc(F)cc(F)c4)c3)ncn2)c(OC)cc1N1CCC(N2CCOCC2)CC1 [Example 272, (R)-N-(5-((6-(3-(3′,5′-difluoro-[1,1′-biphenyl]-3-yl)-isoxazolidin-2-yl)-pyrimidin-4-yl)-amino)-4-methoxy-2-(4-morpholino-piperidin-1-yl)-phenyl)acrylamide]"
3,< 50 nM,"C=CC(=O)Nc1cc(Nc2cc(N3OCC[C@@H]3c3cc(F)cc(Oc4cccc(F)c4)c3)ncn2)c(OC)cc1N1CCN(CC)CC1 [Example 220, (R)-N-(2-(4-ethyl-piperazin-1-yl)-5-((6-(3-(3-fluoro-5-(3-fluorophenoxy)-phenyl)isoxazol-idin-2-yl)pyrim-idin-4-yl)amino)-4-methoxyphen-yl)acrylamide]"
4,50 to 500 nM,"C=CC(=O)Nc1cc(Nc2cc(N3OCC[C@@H]3c3cccc(C#CC(C)(C)C)c3)ncn2)c(OC)cc1N1CCN(C)CC1 [Example 311, (R)-N-(5-((6-(3-(3-(3,3-dimethyl-but-1-yn-1-yl)phen-yl)isoxazolidin-2-yl)pyrimidin-4-yl)-amino)-4-methoxy-2-(4-methylpiper-azin-1-yl)phenyl)-acrylamide]"
5,< 50 nM,"C=CC(=O)Nc1cc(Nc2cc(N3OCCC3c3cccc(-c4ccc5ncnn5c4)c3)ncn2)c(OC)cc1N1CCN(C)CC1 (centres unmarked) [Example 197, N-(5-((6-(3-(3-([1,2,4]triazolo-[1,5-a]pyridin-6-yl)phenyl)isoxazol-idin-2-yl)pyrim-idin-4-yl)amino)-4-methoxy-2-(4-methylpiperazin-1-yl)phenyl)-acrylamide]"
6,< 50 nM,"C=CC(=O)Nc1cc(Nc2cc(N3OCCC3c3cccc(-c4cc(F)cc(F)c4)c3)ncn2)c(OC)cc1N1CCN(C)CC1 (centres unmarked) [Example 267, N-(5-((6-(3-(3′,5′-difluoro-[1,1′-biphenyl]-3-yl)-isoxazolidin-2-yl)-pyrimidin-4-yl)-amino)-4-methoxy-2-(4-methylpiper-azin-1-yl)phenyl)-acrylamide]"
7,50 to 500 nM,"C=CC(=O)Nc1cc(Nc2cc(N3OCCC3c3cccc(C#CC(C)(C)C)c3)ncn2)c(OC)cc1N1CCN(C)CC1 (centres unmarked) [Example compound 139, N-(5-((6-(3-(3-(3,3-dimethylbut-1-yn-1-yl)phenyl)isoxazolidin-2-yl)pyrimidin-4-yl)amino)-4-methoxy-2-(4-methylpiperazin-1-yl)phenyl)acrylamide]"
8,< 50 nM,"C=CC(=O)Nc1cc(Nc2cc(N3OCCC3c3cc(F)cc(OCc4nccs4)c3)ncn2)c(OC)cc1N1CCN(C)CC1 (centres unmarked) [Example compound 132, N-(5-((6-(3-(3-fluoro-5-(thiazol-2-ylmethoxy)phenyl)isoxazolidin-2-yl)pyrimidin-4-yl)amino)-4-methoxy-2-(4-methylpiperazin-1-yl)phenyl)acrylamide]"
9,< 50 nM,"C=CC(=O)Nc1cc(Nc2cc(N3OCCC3c3cccc(-c4nccs4)c3)ncn2)c(OC)cc1N(C)CCN(C)C (centres unmarked) [Example 238, N-(2-((2-(dimeth-ylamino)ethyl)-(methyl)amino)-4-methoxy-5-((6-(3-(3-(thiazol-2-yl)-phenyl)isoxazol-idin-2-yl)pyrim-idin-4-yl)amino)-phenyl)acrylamide]"
10,< 50 nM,"C=CC(=O)Nc1cc(Nc2cc(N3OCC[C@@H]3c3ccc(C)c(OCc4cccc(F)c4)c3)ncn2)c(OC)cc1N(C)CCN(C)C [Example 257, (R)-N-(2-((2-(dimethylamino)-ethyl)(methyl)-amino)-5-((6-(3-(3-((3-fluorobenz-yl)oxy)-4-methyl-phenyl)isoxazol-idin-2-yl)pyrim-idin-4-yl)amino)-4-methoxyphen-yl)acrylamide]"
11,50 to 500 nM,"C=CC(=O)Nc1cc(Nc2cc(N3OCC[C@@H]3c3cccc(OCc4cccc(F)c4)c3)ncn2)c(OC)cc1N1CCN(C)CC1 [Example compound 83, (R)-N-(5-((6-(3-(3-((3-fluorobenzyl)oxy)phenyl)isoxazolidin-2-yl)pyrimidin-4-yl)amino)-4-methoxy-2-(4-methylpiperazin-1-yl)phenyl)acrylamide]"
12,< 50 nM,"C=CC(=O)Nc1cc(Nc2cc(N3OCCC3c3cccc(-c4cccc(C(F)(F)F)c4)c3)ncn2)c(OC)cc1N(C)CCN(C)C (centres unmarked) [Example 236, N-(2-((2-(dimeth-ylamino)ethyl)-(methyl)amino)-4-methoxy-5-((6-(3-(3′-(trifluorometh-yl)-[1,1′-biphenyl]-3-yl)isoxazolidin-2-yl)pyrimidin-4-yl)amino)phenyl)-acrylamide]"
13,50 to 500 nM,"C=CC(=O)Nc1cc(Nc2cc(N3OCC[C@@H]3c3cccc(C#Cc4cccc(O)c4)c3)ncn2)c(OC)cc1N(C)CCN(C)C [Example 312, (R)-N-(2-((2-(dimethylamino)-ethyl)(methyl)-amino)-5-((6-(3-(3-((3-hydroxy-phenyl)ethynyl)-phenyl)isoxazol-idin-2-yl)pyrim-idin-4-yl)amino)-4-methoxyphen-yl)acrylamide]"
14,< 50 nM,"C=CC(=O)Nc1cc(Nc2cc(N3OCC[C@@H]3c3cccc(-c4cccc(F)c4)c3)ncn2)c(OC)cc1N1CCNC2(CC2)C1 [Example 291, (R)-N-(5-((6-(3-(3′-fluoro-[1,1′-biphenyl]-3-yl)-isoxazolidin-2-yl)-pyrimidin-4-yl)-amino)-4-methoxy-2-(4,7-diazaspiro-[2.5]octan-7-yl)-phenyl)acrylamide]"
15,< 50 nM,"C=CC(=O)Nc1cc(Nc2cc(N3OCC[C@@H]3c3cccc(-c4cnc5ccnn5c4)c3)ncn2)c(OC)cc1N1CCOCC1 [Example 264, (R)-N-(4-methoxy-2-morpholino-5-((6-(3-(3-(pyraz-olo[1,5-a]pyrim-idin-6-yl)phenyl)-isoxazolidin-2-yl)-pyrimidin-4-yl)-amino)phenyl)-acrylamide]"
16,50 to 500 nM,"C=CC(=O)Nc1cc(Nc2cc(N3OCC[C@@H]3c3ccc(C)c(OCc4cccc(F)c4)c3)ncn2)c(OC)cc1N1CCN(C)CC1 [Example 256, (R)-N-(5-((6-(3-(3-((3-fluorobenz-yl)oxy)-4-methyl-phenyl)isoxazol-idin-2-yl)pyrim-idin-4-yl)amino)-4-methoxy-2-(4-methylpiperazin-1-yl)phenyl)-acrylamide]"
17,50 to 500 nM,"C=CC(=O)Nc1cc(Nc2cc(N3OCC[C@H]3c3cccc(OCc4cccc(F)c4)c3)ncn2)c(OC)cc1N(C)CCN(C)C [Example 229, (S)-N-(2-((2-(dimethylamino)-ethyl)(methyl)-amino)-5-((6-(3-(3-((3-fluorobenz-yl)oxy)phenyl)-isoxazolidin-2-yl)-pyrimidin-4-yl)-amino)-4-methoxy-phenyl)acrylamide]"
18,< 50 nM,"C=CC(=O)Nc1cc(Nc2cc(N3OCC[C@@H]3c3cc(F)cc(-c4ccsc4)c3)ncn2)c(OC)cc1N1CCN(C)CC1 [Example 193, (R)-N-(5-((6-(3-(3-fluoro-5-(thiophen-3-yl)phenyl)isox-azolidin-2-yl)pyr-imidin-4-yl)amino)-4-methoxy-2-(4-methylpiperazin-1-yl)phenyl)acryl-amide]"
19,< 50 nM,"C=CC(=O)Nc1cc(Nc2cc(N3OCC[C@@H]3c3cc(F)cc(-c4cccc(F)c4)c3)ncn2)c(OC)cc1N1CCC(N2CCN(C3CC3)CC2)CC1 [Example compound 131, (R)-N-(2-(4-(4-cyclopropylpiperazin-1-yl)piperidin-1-yl)-5-((6-(3-(3′,5-difluoro-[1,1′-biphenyl]-3-yl)isoxazolidin-2-yl)pyrimidin-4-yl)amino)-4-methoxyphenyl)acrylamide]"
20,50 to 500 nM,"C=CC(=O)Nc1cc(Nc2cc(N3OCC[C@@H]3c3cccc(-c4cccc(F)c4)c3)ncn2)c(OC)cc1N1CC2(CNC2)C1 [Example 321, (R)-N-(5-((6-(3-(3′-fluoro-[1,1′-biphenyl]-3-yl)-isoxazolidin-2-yl)-pyrimidin-4-yl)-amino)-4-meth-oxy-2-(2,6-diaza-spiro[3.3]heptan-2-yl)phenyl)acryl-amide]"
21,< 50 nM,"C=CC(=O)Nc1cc(Nc2cc(N3OCCC3c3cccc(-c4cccc(F)c4)c3)ncn2)c(OC)cc1N(C)CCN(C)C (centres unmarked) [Example 261, N-(2-((2-(dimeth-ylamino)ethyl)-(methyl)amino)-5-((6-(3-(3′-fluoro-[1,1′-biphenyl]-3-yl)isoxazolidin-2-yl)pyrimidin-4-yl)-amino)-4-methoxy-phenyl)acrylamide]"
22,50 to 500 nM,"C=CC(=O)Nc1cc(Nc2cc(N3OCC[C@@H]3c3cc(F)cc(-c4cccnc4)c3)ncn2)c(OC)cc1N1CCN(C)CC1 [Example 177, (R)-N-(5-((6-(3-(3-fluoro-5-(pyr-idin-3-yl)phenyl)-isoxazolidin-2-yl)-pyrimidin-4-yl)-amino)-4-meth-oxy-2-(4-methyl-piperazin-1-yl)-phenyl)acrylamide]"
23,< 50 nM,"C=CC(=O)Nc1cc(Nc2cc(N3OCC[C@@H]3c3cc(F)cc(-c4ccco4)c3)ncn2)c(OC)cc1N1CCN(C)CC1 [Example compound 133, (R)-N-(5-((6-(3-(3-fluoro-5-(furan-2-yl)phenyl)isoxazolidin-2-yl)pyrimidin-4-yl)amino)-4-methoxy-2-(4-methylpiperazin-1-yl)phenyl)acrylamide]"
